In paper PMC10820826, “Interrogation and validation of the interactome of neuronal Munc18-interacting Mint proteins with AlphaFold2” (The Journal of Biological Chemistry, 2023):
Ends that are not written are not given here.

Key:
Munc18-1 = molecular target: T1, Munc18-1 (Rattus norvegicus, UniProt P61765); assay: ITC of Mint peptides and Sx1a binding to Munc18-1
T1 construct: His (C); made in house; host or cells: Escherichia coli Rosetta BL21 (DE3)
Experimental: For ITC, all peptides were weighed and initially dissolved in the working buffer to make a stock concentration of 2 mM. […] The binding parameters, equilibrium constant Ka (1/Kd), stoichiometry (n), and the enthalpy (ΔH) were determined by processing the ITC data using ORIGIN 7.0 software. The equation, ΔG = ΔH – TΔS, was used to calculate the Gibbs free energy (ΔG), and all the experiments were performed in triplicate or duplicate to calculate the SEM for thermodynamic parameters.

[1] = molecular target: Munc18-1^Δ317–333 + Mint1; assay: ITC of Sx1a binding to Munc18-1 hinge-loop deletion mutant in the presence of Mint1 (261–282) peptide; set-up: species or system rat; conditions: Table 2; syringe Sx1a + Mint1, cell Munc18-1^Δ317–333 + Mint1; ITC 25 °C
From the text: As Mint1 binds to Munc18-1 domain 3b, we hypothesized that the perturbed Mint1 interaction on deletion of the distal domain 3a hinge-loop might be due to altered structural dynamics in the combined domain3a/3b module. […] This is in line with the ability to cocrystallize the three proteins when excess Mint1 peptide is present ([47]). […] This has potential implications for a role of Mint proteins in Munc18-1-mediated SNARE assembly, which is a tightly regulated and highly dynamic process.
For ITC, all peptides were weighed and initially dissolved in the working buffer to make a stock concentration of 2 mM. […] GST-Mint1 and all the other proteins used in the experiments were buffer exchanged into 50 mM Tris (pH 8.0) and 200 mM NaCl by gel filtration prior to ITC. […] Mint1 PTB domain binding to the APP and TJAP1 peptides was performed in 50 mM Hepes, 200 mM NaCl, 0.5 mM TCEP, and 5% glycerol at 25 °C with 1 mM peptides titrated into 50 μM Mint1 PTB domain. The binding parameters, equilibrium constant Ka (1/Kd), stoichiometry (n), and the enthalpy (ΔH) were determined by processing the ITC data using ORIGIN 7.0 software. The equation, ΔG = ΔH – TΔS, was used to calculate the Gibbs free energy (ΔG), and all the experiments were performed in triplicate or duplicate to calculate the SEM for thermodynamic parameters.

T1 sequence (P61765 whole entry): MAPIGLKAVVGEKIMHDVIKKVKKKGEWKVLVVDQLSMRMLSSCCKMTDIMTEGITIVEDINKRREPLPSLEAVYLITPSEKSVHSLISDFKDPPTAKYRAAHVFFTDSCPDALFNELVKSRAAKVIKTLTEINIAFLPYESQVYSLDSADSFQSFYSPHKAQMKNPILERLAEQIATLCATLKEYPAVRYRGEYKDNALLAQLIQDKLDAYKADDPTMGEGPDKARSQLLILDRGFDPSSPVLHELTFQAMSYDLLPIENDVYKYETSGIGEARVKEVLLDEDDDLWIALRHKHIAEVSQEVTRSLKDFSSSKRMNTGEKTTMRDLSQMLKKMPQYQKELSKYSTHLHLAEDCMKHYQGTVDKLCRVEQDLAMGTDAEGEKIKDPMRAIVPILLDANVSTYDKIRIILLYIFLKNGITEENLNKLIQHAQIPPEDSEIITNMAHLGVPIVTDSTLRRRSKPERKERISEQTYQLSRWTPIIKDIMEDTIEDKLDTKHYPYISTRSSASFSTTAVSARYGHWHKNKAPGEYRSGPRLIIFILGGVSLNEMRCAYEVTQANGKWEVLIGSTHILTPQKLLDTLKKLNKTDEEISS

Row | Substance | Kd (Munc18-1) [µM] | Kd [1] [µM]
1 | LEDQEEDIDQIVAEIKMELEMEEI [Mint2_2] | 200 | 
2 | MDSYEQEEDIDQIVAAVKQSMS [Mint1_14] | 216 | 
3 | Sx1a: recombinant rat Syntaxin1a (Sx1_1–261-His) expressed in E. coli |  | 0.09
